ChEMBL document CHEMBL1201862, “PubChem BioAssay data set” (2004)
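Exposure lasted 48 hours, with cells grown in 96-well plates and compounds tested at five concentrations. GI50 marks 50% less growth.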 Activity calls are given as the source filed them. Rule as the data show it: active = GI50 up to about 1.1 µM and inactive = higher.

What was measured:
Assay in all cases: NCI anticancer screen, dose series, 48 h
786-0 = system: 786-0
A498 = system: A498
A549 = system: A549
ACHN = system: ACHN
BT-549 = system: BT-549
CAKI-1 = system: CAKI-1
CCRF-CEM = system: CCRF-CEM
COLO 205 = system: COLO 205
DLD-1 = system: DLD-1
DMS-114 = system: DMS-114
DMS-273 = system: DMS-273
DU-145 = system: DU-145
EKVX = system: EKVX
HCC 2998 = system: HCC 2998
HCT-116 = system: HCT-116
HCT-15 = system: HCT-15
HL-60 = system: HL-60
HOP-18 = system: HOP-18
HOP-62 = system: HOP-62
HOP-92 = system: HOP-92
HT-29 = system: HT-29
Hs-578T = system: Hs-578T
IGROV-1 = system: IGROV-1
K562 = system: K562
KM-20L2 = system: KM-20L2
KM12 = system: KM12
LOX IMVI = system: LOX IMVI
LXFL 529 = system: LXFL 529
M14 = system: M14
M19-MEL = system: M19-MEL
MCF7 = system: MCF7
MOLT-4 = system: MOLT-4
Malme-3M = system: Malme-3M
NCI-H226 = system: NCI-H226
NCI-H23 = system: NCI-H23
NCI-H460 = system: NCI-H460
NCI-H522 = system: NCI-H522
OVCAR-3 = system: OVCAR-3
OVCAR-4 = system: OVCAR-4
OVCAR-5 = system: OVCAR-5
OVCAR-8 = system: OVCAR-8
PC-3 = system: PC-3
RPMI-8226 = system: RPMI-8226
RXF 393 = system: RXF 393
SF-268 = system: SF-268
SF-295 = system: SF-295
SF-539 = system: SF-539
SK-MEL-28 = system: SK-MEL-28
SK-MEL-2 = system: SK-MEL-2
SK-MEL-5 = system: SK-MEL-5
SK-OV-3 = system: SK-OV-3
SN12C = system: SN12C
SNB-19 = system: SNB-19
SNB-75 = system: SNB-75
SNB-78 = system: SNB-78
SW-620 = system: SW-620
T47D = system: T47D
TK-10 = system: TK-10
U-251 = system: U-251
UACC-257 = system: UACC-257
UACC-62 = system: UACC-62
UO-31 = system: UO-31
XF498 = system: XF498
RXF 631 = system: RXF 631
SR = system: SR

## C=C1C(=O)C23C(O)C1CC[C@H]2C12CCCC(C)(COC(C)=O)[C@H]1[C@H](O)[C@]3(O)OC2 (some centres not stated)
786-0
  GI50: 0.966 µM (active)
A498
  GI50: 2.32 µM (inactive)
A549
  GI50: 3.94 µM (inactive)
ACHN
  GI50: 1.51 µM (inactive)
BT-549
  GI50: 1.48 µM (inactive)
CAKI-1
  GI50: 1.16 µM (inactive)
CCRF-CEM
  GI50: 0.211 µM (active)
COLO 205
  GI50: 1.46 µM (inactive)
DLD-1
  GI50: 0.577 µM (active)
DMS-114
  GI50: 1.87 µM (inactive)
DMS-273
  GI50: 1.94 µM (inactive)
DU-145
  GI50: 4.3 µM (inactive)
EKVX
  GI50: 4.01 µM (inactive)
HCC 2998
  GI50: 1.85 µM (inactive)
HCT-116
  GI50: 1.06 µM (active)
HCT-15
  GI50: 0.817 µM
HL-60
  GI50: 0.279 µM (active)
HOP-18
  GI50: 1.27 µM (inactive)
HOP-62
  GI50: 3.09 µM (inactive)
HOP-92
  GI50: 1.39 µM (inactive)
HT-29
  GI50: 1.8 µM (inactive)
Hs-578T
  GI50: 2.77 µM (inactive)
IGROV-1
  GI50: 2.08 µM (inactive)
K562
  GI50: 0.128 µM (active)
KM-20L2
  GI50: 1.56 µM (inactive)
KM12
  GI50: 2.37 µM (inactive)
LOX IMVI
  GI50: 1.52 µM (inactive)
LXFL 529
  GI50: 0.427 µM (active)
M14
  GI50: 1.1 µM (active)
M19-MEL
  GI50: 2.01 µM (inactive)
MCF7
  GI50: 1.78 µM (inactive)
MOLT-4
  GI50: 0.138 µM (active)
Malme-3M
  GI50: 1.42 µM (inactive)
NCI-H226
  GI50: 2.44 µM (inactive)
NCI-H23
  GI50: 1.87 µM (inactive)
NCI-H460
  GI50: 2.24 µM (inactive)
NCI-H522
  GI50: 0.285 µM (active)
OVCAR-3
  GI50: 1.61 µM (inactive)
OVCAR-4
  GI50: 2.15 µM (inactive)
OVCAR-5
  GI50: 2.36 µM (inactive)
OVCAR-8
  GI50: 1.7 µM (inactive)
PC-3
  GI50: 1.88 µM (inactive)
RPMI-8226
  GI50: 0.318 µM (active)
RXF 393
  GI50: 0.407 µM (active)
SF-268
  GI50: 3.19 µM (inactive)
SF-295
  GI50: 0.891 µM (active)
SF-539
  GI50: 1.68 µM (inactive)
SK-MEL-28
  GI50: 1.14 µM (inactive)
SK-MEL-2
  GI50: 1.85 µM (inactive)
SK-MEL-5
  GI50: 1.72 µM (inactive)
SK-OV-3
  GI50: 4.63 µM (inactive)
SN12C
  GI50: 1.71 µM (inactive)
SNB-19
  GI50: 3.44 µM (inactive)
SNB-75
  GI50: 1.53 µM (inactive)
SNB-78
  GI50: 0.653 µM (active)
SW-620
  GI50: 0.519 µM (active)
T47D
  GI50: 1.3 µM (inactive)
TK-10
  GI50: 1.63 µM (inactive)
U-251
  GI50: 2.21 µM (inactive)
UACC-257
  GI50: 1.14 µM (inactive)
UACC-62
  GI50: 1.58 µM (inactive)
UO-31
  GI50: 1.77 µM (inactive)
XF498
  GI50: 1.4 µM (inactive)

## CCOC(=O)Nc1ccc(S(=O)(=O)I)cc1.CCOC(=O)Nc1ccc(S(=O)(=O)I)cc1.CN(C=O)C1=C(N(C)C=O)C(N(C)C=O)=C(N(C)C=O)C(=O)C1=O
786-0
  GI50: > 100 µM (inactive)
A498
  GI50: > 100 µM (inactive)
A549
  GI50: > 100 µM (inactive)
ACHN
  GI50: > 100 µM (inactive)
CAKI-1
  GI50: > 100 µM (inactive)
CCRF-CEM
  GI50: > 100 µM (inactive)
COLO 205
  GI50: > 100 µM (inactive)
DMS-114
  GI50: > 100 µM (inactive)
HCC 2998
  GI50: > 100 µM (inactive)
HCT-116
  GI50: > 100 µM (inactive)
HCT-15
  GI50: > 100 µM
HL-60
  GI50: > 100 µM (inactive)
HOP-18
  GI50: > 100 µM (inactive)
HOP-62
  GI50: > 100 µM (inactive)
HOP-92
  GI50: > 100 µM (inactive)
HT-29
  GI50: > 100 µM (inactive)
IGROV-1
  GI50: > 100 µM (inactive)
K562
  GI50: > 100 µM (inactive)
KM-20L2
  GI50: > 100 µM (inactive)
KM12
  GI50: > 100 µM (inactive)
LOX IMVI
  GI50: > 100 µM (inactive)
LXFL 529
  GI50: > 100 µM (inactive)
M14
  GI50: > 100 µM (inactive)
M19-MEL
  GI50: > 100 µM (inactive)
MOLT-4
  GI50: > 100 µM (inactive)
Malme-3M
  GI50: > 100 µM (inactive)
NCI-H23
  GI50: > 100 µM (inactive)
NCI-H460
  GI50: > 100 µM (inactive)
OVCAR-5
  GI50: > 100 µM (inactive)
OVCAR-8
  GI50: > 100 µM (inactive)
RXF 631
  GI50: > 100 µM (inactive)
SF-268
  GI50: > 100 µM (inactive)
SF-295
  GI50: > 100 µM (inactive)
SF-539
  GI50: > 100 µM (inactive)
SK-MEL-28
  GI50: > 100 µM (inactive)
SK-MEL-2
  GI50: > 100 µM (inactive)
SK-OV-3
  GI50: > 100 µM (inactive)
SN12C
  GI50: > 100 µM (inactive)
SNB-19
  GI50: > 100 µM (inactive)
SNB-78
  GI50: > 100 µM (inactive)
SR
  GI50: > 100 µM (inactive)
SW-620
  GI50: > 100 µM (inactive)
TK-10
  GI50: > 100 µM (inactive)
U-251
  GI50: > 100 µM (inactive)
UACC-257
  GI50: > 100 µM (inactive)
UACC-62
  GI50: > 100 µM (inactive)
UO-31
  GI50: > 100 µM (inactive)
XF498
  GI50: > 100 µM (inactive)

## COCC1C(=O)c2cc3c(cc2C12C=CC1(C=C2)OCCO1)OCO3 (configuration not stated)
786-0
  GI50: 2.13 µM (inactive)
A549
  GI50: 15.4 µM (inactive)
ACHN
  GI50: 12.7 µM (inactive)
CAKI-1
  GI50: 15.9 µM (inactive)
CCRF-CEM
  GI50: 0.583 µM (active)
COLO 205
  GI50: 10.3 µM (inactive)
DLD-1
  GI50: 2.22 µM (inactive)
DMS-114
  GI50: 2.99 µM (inactive)
DMS-273
  GI50: 11.1 µM (inactive)
EKVX
  GI50: 16.6 µM (inactive)
HCT-116
  GI50: 2.21 µM (inactive)
HCT-15
  GI50: 1.6 µM
HL-60
  GI50: 2.09 µM (inactive)
HOP-62
  GI50: 21.6 µM (inactive)
HOP-92
  GI50: 14.5 µM (inactive)
HT-29
  GI50: 3.94 µM (inactive)
IGROV-1
  GI50: 15.4 µM (inactive)
K562
  GI50: 2 µM (inactive)
KM-20L2
  GI50: 10.6 µM (inactive)
KM12
  GI50: 4.57 µM (inactive)
LXFL 529
  GI50: 2.49 µM (inactive)
M14
  GI50: 3.38 µM (inactive)
M19-MEL
  GI50: 2.93 µM (inactive)
MOLT-4
  GI50: 1.65 µM (inactive)
Malme-3M
  GI50: 13.8 µM (inactive)
NCI-H226
  GI50: 10.9 µM (inactive)
NCI-H23
  GI50: 12.5 µM (inactive)
NCI-H460
  GI50: 13.8 µM (inactive)
NCI-H522
  GI50: 1.63 µM (inactive)
OVCAR-3
  GI50: 13.7 µM (inactive)
OVCAR-4
  GI50: 14.2 µM (inactive)
OVCAR-8
  GI50: 3.58 µM (inactive)
RPMI-8226
  GI50: 1.43 µM (inactive)
RXF 393
  GI50: 8.85 µM (inactive)
RXF 631
  GI50: 4.59 µM (inactive)
SF-268
  GI50: 3.86 µM (inactive)
SF-295
  GI50: 14.4 µM (inactive)
SF-539
  GI50: 15.6 µM (inactive)
SK-MEL-28
  GI50: 14.5 µM (inactive)
SK-MEL-2
  GI50: 11.7 µM (inactive)
SK-MEL-5
  GI50: > 10 µM (inactive)
SK-OV-3
  GI50: 16.1 µM (inactive)
SN12C
  GI50: 10.9 µM (inactive)
SNB-75
  GI50: 14.9 µM (inactive)
SR
  GI50: 1.82 µM (inactive)
SW-620
  GI50: 2.48 µM (inactive)
TK-10
  GI50: 20.6 µM (inactive)
U-251
  GI50: 3.67 µM (inactive)
UACC-257
  GI50: 17.9 µM (inactive)
UACC-62
  GI50: 12.2 µM (inactive)
XF498
  GI50: 5.38 µM (inactive)
